Assay results from ChEMBL document CHEMBL5215006, “Antitumor Activity of Piceamycin by Upregulation of N-Myc Downstream-Regulated Gene 1 in Human Colorectal Cancer Cells” (J Nat Prod, 2022).
Activity calls are given as the source filed them. The calls are words filed in the database; no cut-off is given here.

Columns and labels:
HCT-116 [1] = experiment: Induction of apoptosis in human HCT-116 cells assessed as viable cells at 0.075 uM incubated for 48 hrs by Annexin V-FITC/PI staining based flow cytometry analysis (Rvb= 94.18%); assay type: functional; details: read-out: Activity
HCT-116 [2] = experiment: Cell cycle arrest in human HCT-116 cells assessed as accumulation at G0/G1 phase at 0.3 uM incubated for 24 hrs by RNaseA/propidium iodide staining based flow cytometry (reference value: 48.44 %); assay type: functional
SW480 [3] = experiment: Cell cycle arrest in human SW480 cells assessed as downregulation of CDK4 protein expression at 0.35 to 1.4 uM incubated for 24 hrs by immunoblotting assay; assay type: functional, cell-based; details: dose 0.35-1.4 µM
HCT-116 [4] = experiment: Downregulation of cleaved caspase 8 protein expression in human HCT-116 cells with NDRG1 knockdown at 0.3 uM incubated for 24 hrs by immunoblotting assay; assay type: functional, cell-based
HCT-116 [5] = experiment: Induction of apoptosis in human HCT-116 cells assessed as late apoptotic cells at 0.15 uM incubated for 48 hrs by Annexin V-FITC/PI staining based flow cytometry analysis (Rvb= 3.18%); assay type: functional
SW480 [6] = experiment: Anti-migratory activity against human SW480 cells assessed as downregulation of Snail gene expression at 0.35 to 1.4 uM incubated for 24 hrs by RT-PCR assay; assay type: functional, cell-based; details: dose 0.35-1.4 µM
HCT-116 [7] = experiment: Antitumor activity against human HCT-116 cells xenografted Balb/c mouse assessed as reduction in tumor growth at 1 mg/kg,ip administrated for 18 days by 3 times per week; assay type: functional; parameters: scale not given: the % may be the effect or the level left; details: time 18 day
HCT-116 [8] = experiment: Cell cycle arrest in human HCT-116 cells assessed as accumulation at Sub-G1 phase at 0.3 uM incubated for 24 hrs by RNaseA/propidium iodide staining based flow cytometry (reference value: 3.66 %); assay type: functional
HCT-116 [9] = experiment: Induction of apoptosis in human HCT-116 cells assessed as early apoptotic cells at 0.15 uM incubated for 48 hrs by Annexin V-FITC/PI staining based flow cytometry analysis (Rvb= 2.51%); assay type: functional
SW480 [10] = experiment: Induction of apoptosis in human SW480 cells assessed as viable cells at 1.4 uM incubated for 48 hrs by Annexin V-FITC/PI staining based flow cytometry analysis (Rvb= 92.6%); assay type: functional; details: read-out: Activity
HCT-116 [11] = experiment: Antitumor activity against human HCT-116 cells xenografted Balb/c mouse assessed as increase in NDRG1 protein expression at 1 mg/kg,ip administrated for 18 days by 3 times per week by immunoblotting assay; assay type: functional, organism-based; details: time 18.0 day
HCT-116 [12] = experiment: Induction of apoptosis in human HCT-116 cells assessed as necrotic cells at 0.075 uM incubated for 48 hrs by Annexin V-FITC/PI staining based flow cytometry analysis (Rvb= 0.13%); assay type: functional
SW480 [13] = experiment: Induction of apoptosis in human SW480 cells assessed as late apoptotic cells at 1.4 uM incubated for 48 hrs by Annexin V-FITC/PI staining based flow cytometry analysis (Rvb= 5.26%); assay type: functional
HCT-116 [14] = experiment: Antitumor activity against human HCT-116 cells assessed as upregulation of NDRG1 protein expression at 0.075 to 0.3 uM incubated for 24 hrs by immunoblotting assay; assay type: functional, cell-based; details: dose 0.075-0.3 µM, DDE = dose-dependent effect
HCT-116 [15] = experiment: Upregulation of cyclin-D1 protein expression in human HCT-116 cells with NDRG1 knockdown at 0.3 uM incubated for 24 hrs by immunoblotting assay; assay type: functional, cell-based
SW480 [16] = experiment: Cell cycle arrest in human SW480 cells assessed as accumulation at G0/G1 phase at 0.35 uM incubated for 24 hrs by RNaseA/propidium iodide staining based flow cytometry (reference value: 54.49 %); assay type: functional
SW480 [17] = experiment: Cell cycle arrest in human SW480 cells assessed as accumulation at Sub-G1 phase at 0.35 uM incubated for 24 hrs by RNaseA/propidium iodide staining based flow cytometry (reference value: 3.2 %); assay type: functional
SW480 [18] = experiment: Cell cycle arrest in human SW480 cells assessed as accumulation at G2/M phase at 1.4 uM incubated for 24 hrs by RNaseA/propidium iodide staining based flow cytometry (reference value: 24.74 %); assay type: functional
HCT-116 [19] = experiment: Cell cycle arrest in human HCT-116 cells assessed as accumulation at G2/M phase at 0.075 uM incubated for 24 hrs by RNaseA/propidium iodide staining based flow cytometry (reference value: 28.41 %); assay type: functional
HCT-116 [20] = experiment: Downregulation of cleaved PARP protein expression in human HCT-116 cells with NDRG1 knockdown at 0.3 uM incubated for 24 hrs by immunoblotting assay; assay type: functional, cell-based
HCT-116 [21] = experiment: Induction of apoptosis in human HCT-116 cells assessed as downregulation of survivin expression at 0.3 uM measured at 12 to 48 hrs by immunoblotting assay; assay type: functional, cell-based; details: time 12-48 hrs, TDE = time-dependent effect
SW480 [22] = experiment: Induction of apoptosis in human SW480 cells assessed as early apoptotic cells at 0.35 uM incubated for 48 hrs by Annexin V-FITC/PI staining based flow cytometry analysis (Rvb= 2.07%); assay type: functional
HCT-116 [23] = experiment: Anti-migratory activity against human HCT-116 cells assessed as downregulation of N-cadherin protein expression at 0.075 to 0.3 uM incubated for 24 hrs by immunoblotting assay; assay type: functional, cell-based; details: dose 0.075-0.3 µM
HCT-116 [24] = experiment: Anti-migratory activity against highly liver metastatic human HCT-116 cells assessed as reduction in migration to 0.075 to 0.3 uM incubated for 24 hrs by wound healing assay; assay type: functional, cell-based; details: dose 0.075-0.3 µM, DDE = dose-dependent effect
HCT-116 [25] = experiment: Antitumor activity against human HCT-116 cells xenografted Balb/c mouse assessed as increase in NDRG1 protein expression at 3 mg/kg,ip administrated for 18 days by 3 times per week by immunoblotting assay; assay type: functional, organism-based; details: time 18.0 day
HCT-116 [26] = experiment: Cell cycle arrest in human HCT-116 cells assessed as accumulation at G2/M phase at 0.3 uM incubated for 24 hrs by RNaseA/propidium iodide staining based flow cytometry (reference value: 28.41 %); assay type: functional
SW480 [27] = experiment: Antitumor activity against human SW480 cells assessed as upregulation of NDRG1 gene expression at 0.35 to 1.4 uM incubated for 24 hrs by RT-PCR method; assay type: functional, cell-based; details: dose 0.35-1.4 µM, DDE = dose-dependent effect
SW480 [28] = experiment: Cell cycle arrest in human SW480 cells assessed as accumulation at S phase at 1.4 uM incubated for 24 hrs by RNaseA/propidium iodide staining based flow cytometry (reference value: 16.7 %); assay type: functional
HCT-116 [29] = experiment: Antimigratory activity against highly liver metastatic human HCT-116 cells assessed as downregulation of N-cadherin gene expression at 0.075 to 0.3 uM incubated for 24 hrs by RT-PCR method; assay type: functional, cell-based; details: dose 0.075-0.3 µM
HCT-116 [30] = experiment: Cell cycle arrest in human HCT-116 cells assessed as accumulation at G2/M phase at 0.15 uM incubated for 24 hrs by RNaseA/propidium iodide staining based flow cytometry (reference value: 28.41 %); assay type: functional
HCT-116 [31] = experiment: Antimigratory activity against highly liver metastatic human HCT-116 cells assessed as upregulation of E-cadherin protein expression at 0.075 to 0.3 uM incubated for 24 hrs by immunoblotting assay; assay type: functional, cell-based; details: dose 0.075-0.3 µM
HCT-116 [32] = experiment: Cell cycle arrest in human HCT-116 cells assessed as downregulation of cyclin-D1 protein expression at 0.075 to 0.3 uM incubated for 24 hrs by immunoblotting assay; assay type: functional, cell-based; details: dose 0.075-0.3 µM
SW480 [33] = experiment: Anti-migratory activity against human SW480 cells assessed as downregulation of Snail protein expression at 0.35 to 1.4 uM incubated for 24 hrs by immunoblotting assay; assay type: functional, cell-based; details: dose 0.35-1.4 µM

With `C[C@@H]1\C=C/C=C/C=C\C=C\C=C\C(=O)C2=C(O)C(=O)C[C@@]2(C)/C=C/C=C\C=C/C(=O)NC1` the viability at 0.075 µM (HCT-116 [1]) was 84.8%, the Activity (HCT-116 [2]) was 62.85% and the Activity (SW480 [3]) was “Active”. For the same molecule, the Activity (HCT-116 [4]) was “Active”, the Activity (HCT-116 [5]) was 9.22% and the Activity (SW480 [6]) was “Active”. The Activity (HCT-116 [7]) was 67%, the Activity (HCT-116 [8]) was 5.19% and the Activity (HCT-116 [9]) was 15.66%. The viability at 1.4 µM (SW480 [10]) was 31%, the Activity (HCT-116 [11]) was “Active” and the Activity (HCT-116 [12]) was 0.16%. For the same molecule, the Activity (SW480 [13]) was 44.51%, the Activity (HCT-116 [14]) was “Dde” and the Activity (HCT-116 [15]) was “Active”. It also gave an Activity (SW480 [16]) of 54.89%, an Activity (SW480 [17]) of 5.1% and an Activity (SW480 [18]) of 19.26%. The Activity (HCT-116 [19]) was 29.02%, the Activity (HCT-116 [20]) was “Active” and the Activity (HCT-116 [21]) was “Tde”. For the same molecule, the Activity (SW480 [22]) was 2.62%, the Activity (HCT-116 [23]) was “Active” and the Activity (HCT-116 [24]) was “Dde”. For the same molecule, the Activity (HCT-116 [25]) was “Active”, the Activity (HCT-116 [26]) was 22.13% and the Activity (SW480 [27]) was “Dde”. For the same molecule, the Activity (SW480 [28]) was 11.23%, the Activity (HCT-116 [29]) was “Active” and the Activity (HCT-116 [30]) was 21.81%. The Activity (HCT-116 [31]) was “Active”, the Activity (HCT-116 [32]) was “Active” and the Activity (SW480 [33]) was “Active”.
